{"source": "patent US20230110128A1", "about": "“USE OF ANTIBODY DRUG CONJUGATES COMPRISING TUBULIN DISRUPTING AGENTS TO TREAT SOLID TUMOR” (Seagen Inc., priority 2018, published 2023)", "type_in_all_cases": "cell-based", "key": {"[1]": {"tested_on": "MCF7 cells", "test": "ATP secretion from MCF7 cells"}, "[2]": {"tested_on": "MCF7 cells co-cultured with macrophages", "test": "Cytokine and chemokine production in macrophage co-culture with treated MCF7 cells", "details": "MCF7 co-culture supernatant 24 hours, ELISA, normalized to untreated", "description": "MCF7 […] cells were treated with MMAE, an MMAE-containing ADC (anti-CD71 OKT9-1006), vincristine, and Paclitaxel for 24 hours. Cells were washed and harvested, and subsequently co-cultured with the enriched macrophages prepared above. Macrophages were harvested 4 days after co-culture and assayed for immune activation by flow cytometry. […] Supernatant from the co-culture of macrophages and dying MCF7 cells was harvested 24 hours later and assayed for levels of cytokine and chemokine production by ELISA and normalized to macrophages that were co-cultured with untreated tumor cells."}, "[3]": {"tested_on": "T-24 (bladder) cells", "test": "ATP secretion from T-24 cells", "details": "48 hours", "description": "T-24 (bladder) cells were treated with MMAE or an MMAE-containing ADC (ASG-22ME) for 48 hours and analyzed for ATP secretion. […] T-24 cells were also treated with MMAE, an MMAE-containing ADC (ASG22ME, Enfortumab vedotin), vincristine, and Paclitaxel for 24 hours. Cells were washed and harvested, and subsequently co-cultured with the enriched macrophages as above. Macrophages were harvested 4 days after co-culture and assayed for immune activation by flow cytometry. Level of antigen-presentation (as measured by frequency of MHCII-expressing macrophages) was quantified and normalized to macrophages that were co-cultured with untreated tumor cells. […] Supernatant from the co-culture of macrophages and dying T-24 tumor cells was harvested after 24 hours and assayed for levels of cytokine and chemokine production by ELISA and normalized to macrophages that were co-cultured with untreated tumor cells."}, "[4]": {"tested_on": "MCF7 cells", "test": "HMGB1 release from MCF7 cells", "description": "(§1) Induction of ICD is also characterized by the secretion of ATP and HMGB1. Extracellular ATP serves as a strong chemotactic signal, promoting immune cell migration to the tumor site. Upon arrival, extracellular HMGB1 signals through various pro-inflammatory receptors (TLR2, TLR4, RAGE) to activate antigen-presenting cells, thereby promoting immune activity within the tumor.\nas §1, with “MCF7 cells were treated with MMAE or an MMAE-containing ADC (SGN-LIV1A) for 16 hours and harvested in […] for western bot analysis. […] Induction” for “Induction”"}, "[5]": {"tested_on": "MiaPaca-CHOP-luciferase cells", "test": "CHOP-driven luciferase reporter assay of severe ER stress", "details": "after 16 hours", "description": "Severe ER stress leads to upregulation of CHOP, and initiates mitochondrial apoptosis. MiaPaca2 pancreatic tumor cells were engineered to express a CHOP-driven luciferase reporter system (purchased from Signosis, Inc.) that allows for quantifiable monitoring of severe ER stress. MiaPaca-CHOP-luciferase cells were treated with MMAE, vincristine, and Paclitaxel, and assayed for luciferase expression after 16 hours."}, "[6]": {"tested_on": "Calu-1 cells co-cultured with macrophages", "test": "Cytokine and chemokine production in macrophage co-culture with treated Calu-1 cells", "details": "Calu-1 co-culture supernatant 24 hours, ELISA, normalized to untreated", "description": "Supernatant from the co-culture of macrophages and dying tumor cells was harvested 24 hours later and assayed for levels of cytokine and chemokine production by ELISA and normalized to macrophages that were co-cultured with untreated tumor cells as described above."}}, "note": "Non-standard residues stand in square brackets, D forms with d. Residues, ends and D or L forms follow the SMILES beside them. *: point of attachment. Dolaproine = CO[C@@H]([C@@H]1CCCN1)[C@@H](C)C(=O)O; Dil = CC[C@H](C)[C@H](NC)[C@@H](CC(=O)O)OC; X1 = C[C@@H](N*)[C@@H](O)c1ccccc1; NMeV = CN[C@H](C(=O)O)C(C)C"}
{"molecule": "CC[C@H](C)[C@@H]([C@@H](CC(=O)N1CCC[C@H]1[C@H](OC)[C@@H](C)C(=O)N[C@H](C)[C@@H](O)c1ccccc1)OC)N(C)C(=O)[C@@H](NC(=O)[C@@H](NC)C(C)C)C(C)C", "note": "[MMAE, monomethyl auristatin E] (H-[NMeV]V[Dil][Dolaproine]-X1)", "values": [{"measurement": "Secretion of ATP", "setting": "[1]", "result": "increased secretion"}, {"measurement": "Cytokine and chemokine production", "setting": "[2]", "result": "increase of the indicated cytokines and chemokines that was more robust than treatment with Paclitaxel"}, {"measurement": "ATP secretion", "setting": "[3]", "result": "potent ATP secretion"}, {"measurement": "Secretion of HMGB1", "setting": "[4]", "result": "increased secretion"}, {"measurement": "Luciferase signal as a proxy of severe ER stress induction", "setting": "[5]", "result": "dose-dependent increase in luciferase signal"}, {"measurement": "Cytokine and chemokine production", "setting": "[6]", "result": "increase of the indicated cytokines and chemokines that was more robust than treatment with Paclitaxel"}]}
